# Reference: patent publication US20100310591A1 (priority 2009, published 2010)
# Test system: CD4+ T cells (CD8+ depleted PBMC of rHA-responsive donors)
# Assay type: cell-based, human
# Conditions: not given
Substance,"in vitro CD4 response, fold above background",recognition frequency among donors
LRNSPQRERRRKKRGLF [BEI 57],4.1 fold above background,
LVPRIATRSKVNGQSGR [BEI 39],3.8 fold above background,
MEKNVTVTHAQDUKEKT [BEI 7],12 fold above background,
NHFEKIQIIPKSSWSSH [BEI 22],4.6 fold above background,
PLILRDCSVAGWLLGNP [BEI 12],3.3 fold above background,
SNVKNLYDKVRLQLRDN [BEI 78],3.3 fold above background,
STLNQRLVPRIATRSKV [BEI 38],13 fold above background,
VTHAQDILEKTHNGKL [BEI 8],3.4 fold above background,
WLIKKNSTYPTILRSYN [BEI 29],3.6 fold above background,
YQGKSSFFRNVVWLIKK [BEI 27],12 fold above background,
YQNPTTYISVGTSTLNQ [BEI 36],,21%

# Test system: CD4+ T cells (CD8+ depleted donor PBMC)
# Assay type: cell-based, human
# Conditions: not given
Substance,frequency of recognition (responding vaccine recipients / tested),in vitro IFN-γ response (in words)
Ac-LRMK-ava-HLLSRINHFEKIQ—NH2 [Ii-Key peptide No. 121],9/35,strongest in vitro IFN-γ responses
Ac-LRMK-ava-KKNSAYPTIKRSY—NH2 [Ii-Key peptide No. 170],9/35,strongest in vitro IFN-γ responses
Ac-LRMK-ava-TIKRSYNNTNQED—NH2 [Ii-Key peptide No. 177],10/35,strongest in vitro IFN-γ responses

# Test system: MHC class II molecules
# Conditions: cited from earlier work
row,Substance,share of maximal activity of any member of the series of Ii-key peptides
1,LRMK (SEQ ID NO: 3),at least 50%
